Source: PubChem BioAssay AID196 (DTP/NCI, 2004)
Where “and” joins values, the source holds several entries; their conditions need not be identical. Equal entries are not always repeated. Toxic doses and inconclusive results are not listed. *1 amine or outer side, *2 acyl side, *3 side chain or, on linkers, in order; H or OH if unused. Where a SMILES comes first, the peptide text is derived from it. Bridges are numbered along the chain shown (N, C = ends). Roman numbers before positions name the chains, in order. [ ]: non-standard residue; d: D form. Actinocin(9to1) = Cc1c2oc3c(C)ccc(C(=O)[*:1])c3nc-2c(C(=O)[*:2])c(N)c1=O; aThr = C[C@H](O)[C@H](N)C(=O)O; NMeV = CN[C@H](C(=O)O)C(C)C; Sar = CNCC(=O)O

Test system: BDF1 mice, intracerebral B16 melanoma, median survival T/C
Assay: NCI In Vivo Anticancer Drug Screen. Data for tumor model B16 Melanoma (intracerebral) in B6D2F1 (BDF1) mice
Settings: endpoint: median survival time, higher = longer survival
Protocol: The antitumor activity of compounds was measured in mice bearing transplantable tumors. Survival or tumor size were measured and the results are expressed as the measurement made in the treated group (T) divided by the measurement made in the vehicle treated control group (C). The tumor model used in this assay is B16 Melanoma (intracerebral) in B6D2F1 (BDF1) mice

O=NN(CCF)C(=O)NC1CCCCC1
T/C (dose: 5.1 mg/kg/injection, schedule: Q01DX001 (ip), vehicle: other): 107 % of control
T/C (dose: 10.2 mg/kg/injection, schedule: Q01DX001 (ip), vehicle: other): 112 % of control
T/C (dose: 13.0 mg/kg/injection, schedule: Q01DX001 (ip), vehicle: Klucel (hydroxypropylcellulose) (HPC)): 104 % of control
T/C (dose: 17.8 mg/kg/injection, schedule: Q01DX001 (ip), vehicle: Klucel (hydroxypropylcellulose) (HPC)): 111 % of control
T/C (dose: 21.6 mg/kg/injection, schedule: Q01DX001 (ip), vehicle: Klucel (hydroxypropylcellulose) (HPC)): 174 % of control
T/C (dose: 26.7 mg/kg/injection, schedule: Q01DX001 (ip), vehicle: Klucel (hydroxypropylcellulose) (HPC)): 115 % of control
T/C (dose: 40.0 mg/kg/injection, schedule: Q01DX001 (ip), vehicle: Klucel (hydroxypropylcellulose) (HPC)): 180 % of control
T/C (dose: 43.2 mg/kg/injection, schedule: Q01DX001 (ip), vehicle: other): 180 % of control
T/C (dose: 60.0 mg/kg/injection, schedule: Q01DX001 (ip), vehicle: Klucel (hydroxypropylcellulose) (HPC)): 168 % of control and 269 % of control
T/C (dose: 90.0 mg/kg/injection, schedule: Q01DX001 (ip), vehicle: Klucel (hydroxypropylcellulose) (HPC)): 263 % of control
T/C (dose: 162.8 mg/kg/injection, schedule: Q01DX001 (ip), vehicle: other): 235 % of control

COc1cc(NS(C)(=O)=O)ccc1Nc1c2ccccc2nc2c(C)cccc12
T/C (dose: 5.0 mg/kg/injection, schedule: Q04DX003 (ip), vehicle: Klucel (hydroxypropylcellulose) (HPC)): 88 % of control
T/C (dose: 5.0 mg/kg/injection, schedule: Q04DX003 (ip), vehicle: saline): 108 % of control
T/C (dose: 10.0 mg/kg/injection, schedule: Q04DX003 (ip), vehicle: Klucel (hydroxypropylcellulose) (HPC)): 91 % of control
T/C (dose: 10.0 mg/kg/injection, schedule: Q04DX003 (ip), vehicle: saline): 100 % of control
T/C (dose: 20.0 mg/kg/injection, schedule: Q04DX003 (ip), vehicle: saline): 116 % of control

CS(C)=O
T/C (dose: 1000.0 mg/kg/injection, schedule: Q01DX005 (ip), vehicle: saline): 103 % of control
T/C (dose: 2000.0 mg/kg/injection, schedule: Q01DX005 (ip), vehicle: saline): 97 % of control and 100 % of control and 108 % of control
T/C (dose: 4000.0 mg/kg/injection, schedule: Q01DX005 (ip), vehicle: saline): 101 % of control and 109 % of control and 114 % of control

CNNCc1ccc(C(=O)NC(C)C)cc1
T/C (dose: 25.0 mg/kg/injection, schedule: Q01DX009 (ip), vehicle: saline): 120 % of control
T/C (dose: 75.0 mg/kg/injection, schedule: Q01DX009 (ip), vehicle: water): 154 % of control
T/C (dose: 100.0 mg/kg/injection, schedule: Q01DX009 (ip), vehicle: saline): 163 % of control
T/C (dose: 150.0 mg/kg/injection, schedule: Q01DX009 (ip), vehicle: water): 163 % of control
T/C (dose: 200.0 mg/kg/injection, schedule: Q01DX009 (ip), vehicle: saline): 168 % of control and 170 % of control
T/C (dose: 300.0 mg/kg/injection, schedule: Q01DX009 (ip), vehicle: water): 100 % of control

CN(C)CC(=O)c1ccc(O)c(O)c1
T/C (dose: 100.0 mg/kg/injection, schedule: Q01DX005 (ip), vehicle: saline): 96 % of control
T/C (dose: 200.0 mg/kg/injection, schedule: Q01DX005 (ip), vehicle: saline): 124 % of control and 97 % of control
T/C (dose: 400.0 mg/kg/injection, schedule: Q01DX005 (ip), vehicle: saline): 119 % of control
T/C (dose: 800.0 mg/kg/injection, schedule: Q01DX005 (ip), vehicle: saline): 90 % of control and 108 % of control

CN(Cc1cnc2nc(N)nc(N)c2n1)c1c(Cl)cc(C(=O)NC(CCC(=O)O)C(=O)O)cc1Cl (configuration not stated)
T/C (dose: 8.0 mg/kg/injection, schedule: Q01DX009 (ip), vehicle: Klucel (hydroxypropylcellulose) (HPC)): 100 % of control
T/C (dose: 16.0 mg/kg/injection, schedule: Q01DX009 (ip), vehicle: Klucel (hydroxypropylcellulose) (HPC)): 110 % of control
T/C (dose: 32.0 mg/kg/injection, schedule: Q01DX009 (ip), vehicle: Klucel (hydroxypropylcellulose) (HPC)): 94 % of control
T/C (dose: 64.0 mg/kg/injection, schedule: Q01DX009 (ip), vehicle: Klucel (hydroxypropylcellulose) (HPC)): 96 % of control
T/C (dose: 128.0 mg/kg/injection, schedule: Q01DX009 (ip), vehicle: Klucel (hydroxypropylcellulose) (HPC)): 100 % of control

Cc1c2ccncc2c(C)c2c1[nH]c1ccccc12
T/C (dose: 10.0 mg/kg/injection, schedule: Q01DX009 (ip), vehicle: saline): 113 % of control

Cc1c2oc3c(C)ccc(C(=O)N[C@@H]4C(=O)N[C@H](C(C)C)C(=O)N5CCC[C@H]5C(=O)N(C)CC(=O)N(C)[C@@H](C(C)C)C(=O)O[C@H]4C)c3nc-2c(C(=O)N[C@@H]2C(=O)N[C@H](C(C)C)C(=O)N3CCC[C@H]3C(=O)N(C)CC(=O)N(C)[C@@H](C(C)C)C(=O)O[C@H]2C)c(N)c1=O (I: [aThr][dV]P[Sar][NMeV] / II: [aThr][dV]P[Sar][NMeV]; ester I:1-I:C, II:1-II:C; linker I:N-II:N via Actinocin(9to1))
T/C (dose: 0.02 mg/kg/injection, schedule: Q01DX009 (ip), vehicle: water): 118 % of control
T/C (dose: 0.05 mg/kg/injection, schedule: Q01DX009 (ip), vehicle: water): 109 % of control
